Data: US20040110763A1, “Pyrazolopyridine compound and pharmaceutical use thereof” (priority 2000, published 2004)

How the values were obtained:
ddY mice = experiment: Anticatalepsy activity in mouse (haloperidol-induced catalepsy); format: in vivo; details: 3.2 mg/kg orally, ddY mice n=7; haloperidol 0.32 mg/kg i.p. 30 min after compound; measured 30 min after injection, bar test up to 30 sec
Method: Test 2: Anticatalepsy Activity in Mouse
The test compound (3.2 mg/kg) was administered orally with ddY mice (n=7). Then, haloperidol (0.32 mg/kg) was injected intraperitoneally 30 min. after the administration of the compound. Thirty min. after the injection, the cataleptic responses of mice were measured. The forelimbs of each mouse were placed on a 3 cm high, 3 mm wide horizontal bar, and the duration of cataleptic posture was measured for up to 30 sec.

human A2a receptor = human A2a receptor (Homo sapiens, UniProt P29274); experiment: Adenosine antagonistic activity, radioligand binding, A2a receptor; details: [3H]CGS 21680 20 nM
Method: (§1) Test 1: Adenosine Antagonistic Activity
(§2) The adenosine antagonistic activity [Ki(nM)] of the test compound was examined by radioligand binding techniques using 8-cyclopentyl-1,3-dipropylxanthine, [dipropyl-2,3-^3H(N)] ([^3H]DPCPX, 4.5 nM) for human A1 receptor and [^3H]CGS 21680 (20 nM) for human A2a receptor.

human A1 receptor = target: T1, human A1 receptor (Homo sapiens, UniProt P30542); experiment: Adenosine antagonistic activity, radioligand binding, A1 receptor; details: [3H]DPCPX 4.5 nM
T1 sequence (P30542 1-326): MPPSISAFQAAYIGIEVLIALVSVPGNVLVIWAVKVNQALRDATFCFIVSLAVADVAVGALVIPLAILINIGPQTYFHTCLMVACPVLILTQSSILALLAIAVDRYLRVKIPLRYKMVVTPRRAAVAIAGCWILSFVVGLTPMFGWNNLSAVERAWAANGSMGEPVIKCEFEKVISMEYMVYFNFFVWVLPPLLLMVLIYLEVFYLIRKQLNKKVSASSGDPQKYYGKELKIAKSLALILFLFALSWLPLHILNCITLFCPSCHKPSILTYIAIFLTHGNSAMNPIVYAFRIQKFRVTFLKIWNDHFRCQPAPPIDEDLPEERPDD
Method: as §1, §2

human A2a receptor, sequence (P29274 whole entry): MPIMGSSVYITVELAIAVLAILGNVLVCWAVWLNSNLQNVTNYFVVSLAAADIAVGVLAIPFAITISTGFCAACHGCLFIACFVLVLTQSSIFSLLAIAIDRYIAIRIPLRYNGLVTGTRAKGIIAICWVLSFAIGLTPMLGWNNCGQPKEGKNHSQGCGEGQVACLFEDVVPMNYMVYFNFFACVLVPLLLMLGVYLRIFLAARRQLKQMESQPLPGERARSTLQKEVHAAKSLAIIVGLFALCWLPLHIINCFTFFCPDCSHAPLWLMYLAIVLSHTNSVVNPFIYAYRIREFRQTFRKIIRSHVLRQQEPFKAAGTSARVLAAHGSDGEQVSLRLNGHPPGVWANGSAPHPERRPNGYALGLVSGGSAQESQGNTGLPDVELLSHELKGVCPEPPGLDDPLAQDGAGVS

Row | Structure (SMILES) | Manifestation rate of catalepsy (number of mouse) (ddY mice) | melting point | Ki (human A2a receptor) | Ki (human A1 receptor)
1 | COc1ccn2nc(-c3ccccc3)c(-c3ccc(=O)n(C(C)C)n3)c2c1 [Example 2, 5-Methoxy-3-(3-oxo-2-isopropyl-2,3-dihydropyridazin-6-yl)-2-phenylpyrazolo[1,5-a]pyridine] | 0/7 | 180.5 to 181.5 °C | 1.38 nM | 0.15 nM
2 | CC(C)n1nc(-c2c(-c3ccccc3)nn3ccc(O)cc23)ccc1=O [Example 3, 5-Hydroxy-3-(3-oxo-2-isopropyl-2,3-dihydropyridazin-6-yl)-2-phenylpyrazolo[1,5-a]pyridine] |  | > 250 °C | 1.05 nM | 0.14 nM
3 | CC(C)n1nc(-c2c(-c3ccccc3)nn3ccc(OCCN(C)C)cc23)ccc1=O [Example 4, 5-(2-Dimethylamino)ethoxy-3-(3-oxo-2-isopropyl-2,3-dihydropyridazin-6-yl)-2-phenylpyrazolo[1,5-a]pyridine] | 0/7 | 138 to 139 °C | 2.35 nM | 0.98 nM
4 | CC(C)n1nc(-c2c(-c3ccccc3)nn3ccc(Oc4ccccn4)cc23)ccc1=O [Example 31, 5-(2-pyridinyloxy)-3-(3-oxo-2-isopropyl-2,3-dihydropyridazin-6-yl)-2-phenylpyrazolo[1,5-a]pyridine] | 0/7 | 140.5 to 141.5 °C | 1.44 nM | 0.42 nM
5 | CC(C)n1nc(-c2c(-c3ccccc3)nn3ccc(C(=O)N(C)C)cc23)ccc1=O [Example 72, N,N-dimethyl-3-(3-oxo-2-isopropyl-2,3-dihydropyridazin-6-yl)-2-phenylpyrazolo[1,5-a]pyridine-5-carboxamide] | 0/7 |  | 1.68 nM | 0.25 nM
6 | CC(C)n1nc(-c2c(-c3ccccc3)nn3ccc(N4CCN(C)CC4)cc23)ccc1=O [Example 96, 5-(4-methyl-1-piperazinyl)-3-(3-oxo-2-isopropyl-2,3-dihydropyridazin-6-yl)-2-phenylpyrazolo[1,5-a]pyridine] | 0/7 | 170 to 171 °C | 1.28 nM | 0.24 nM
7 | CC(C)n1nc(-c2c(-c3ccccc3)nn3ccc(NC(=O)OC(C)(C)C)cc23)ccc1=O [Example 145, tert-butyl 3-(3-oxo-2-isopropyl-2,3-dihydropyridazin-6-yl)-2-phenylpyrazolo[1,5-a]pyridin-5-ylcarbamate] | 0/7 | 208 to 210 °C | 1.03 nM | 0.48 nM
8 | CCCOc1cccn2nc(-c3ccccc3)c(-c3ccc(=O)n(C(C)C)n3)c12 [Example 197, 4-n-Propoxy-3-(3-oxo-2-isopropyl-2,3-dihydropyridazin-6-yl)-2-phenylpyrazolo [1,5-a]pyridine] |  | 176 to 177 °C |  | 
9 | CC(C)n1nc(-c2c(-c3ccccc3)nn3cccc(OCCN(C)C)c23)ccc1=O [Example 198, 4-(2-(Dimethylamino)ethoxy)-3-(3-oxo-2-isopropyl-2,3-dihydropyridazin-6-yl)-2-phenylpyrazolo[1,5-a]pyridine] |  | 137 to 138 °C |  | 
